# Test results taken from the C3SDB collision cross section collection.
# Several values for one entry are separate records, joined by “and”; a condition that tells them apart may be missing. Equal entries are not always repeated.
# Settings: [M+H]+; instrument: TW
row,SMILES,collision cross section (N2) [Å²]
1,C[C@]12CCC(=O)C=C1CC[C@@H]1[C@@H]2C(=O)C[C@@]2(C)[C@H]1CC[C@]2(O)C(=O)CO [Cortisone],184
2,CCS(=O)(=O)CCSP(=O)(OC)OC [Demeton-S-methyl- sulfone],143.66
3,Cn1c([N+](=O)[O-])cnc1COC(N)=O [Ronidazole],131.6
4,Cc1nnc(NS(=O)(=O)c2ccc(N)cc2)s1 [Sulfamethizole],152.2
5,Cc1cc(C)nc(Nc2ccccc2)n1 [Pyrimethanil],142.95
6,CC(C)(C)NCC(O)c1cc(Cl)c(N)c(Br)c1 (stereo not drawn) [Bromchlorbuterol],165.2
7,C[C@@H]1C[C@H]2[C@@H]3C[C@H](F)C4=CC(=O)C=C[C@]4(C)[C@@]3(F)[C@@H](O)C[C@]2(C)[C@@]1(O)C(=O)CO [Flumethasone],193.2
8,CC(C)N(C(=O)CCl)c1ccccc1 [Propachlor],142.07
9,CC(C)NCC(O)c1ccc(N)c(C#N)c1 (stereo not drawn) [Cimaterol],155.4
10,C#CCOc1ccc(CCNC(=O)C(OCC#C)c2ccc(Cl)cc2)cc1OC (stereo not drawn) [Mandipropamid],195.15
11,CC(C)c1ccc(NC(=O)N(C)C)cc1 [Isoproturon],150.75
12,CC(C(=O)O)c1cccc(C(=O)c2ccccc2)c1 (stereo not drawn) [Ketoprofen],155.4
13,C[C@]12CC[C@H]3[C@@H](CCC4=CC(=O)CC[C@H]43)[C@@H]1CC[C@H]2O [17a-Nortestosterone],165.7
14,c1ccc2[nH]c(-c3cscn3)nc2c1 [Thiabendazole],136.19
15,CC(C)Oc1cc(-n2nc(C(C)(C)C)oc2=O)c(Cl)cc1Cl [Oxadiazon],182.17
16,CC1(C)CCC(Cc2ccc(Cl)cc2)C1(O)Cn1cncn1 (stereo not drawn) [Metconazole],168.62
17,O=C(NC(=O)c1c(F)cccc1F)Nc1ccc(Oc2ccc(C(F)(F)F)cc2Cl)cc1F [Flufenoxuron],204.46
18,CC(C)NCC(O)COc1cccc2[nH]c3ccccc3c12 (stereo not drawn) [Carazolol],165.5
19,C=CCOC(=O)C(C)(C)OC(=O)c1cc(-n2c(=O)cc(C(F)(F)F)n(C)c2=O)ccc1Cl [Butafenacil],208.59
20,COc1ncnc(NS(=O)(=O)c2ccc(N)cc2)c1OC [Sulfadoxine],166.6
21,CCOCCOC(=O)C(C)Oc1ccc(Oc2ncc(C(F)(F)F)cc2Cl)cc1 (stereo not drawn) [Haloxyfop-2-ethoxyethyl],193.53

row,SMILES,collision cross section (N2) [Å²]
1,CCn1cc(C(=O)O)c(=O)c2cc3c(cc21)OCO3 [Oxolinic acid],147.8
2,CON(C)C(=O)Nc1ccc(Cl)cc1 [Monolinuron],142.9
3,CC1CCc2cc(F)cc3c(=O)c(C(=O)O)cn1c23 (stereo not drawn) [Flumequine],147.6
4,Oc1ccc2nc(-c3cscn3)[nH]c2c1 [Hydroxythiabendazole],137.2
5,Cc1cnc(/N=C(\O)C2=C(O)c3ccccc3S(=O)(=O)N2C)s1 [Meloxicam],174.9
6,CCC(=O)c1ccc2c(c1)N(CCCN(C)C)c1ccccc1S2 [Propionylpromazine],182.8
7,C=C1C[C@@]23CC[C@H]4[C@@](C)(CCC[C@@]4(C)C(=O)O[C@@H]4O[C@H](CO)[C@@H](O)[C@H](O)[C@H]4O)[C@@H]2CC[C@]1(O[C@@H]1O[C@H](CO)[C@@H](O)[C@H](O)[C@H]1O[C@@H]1O[C@@H](C)[C@H](O)[C@@H](O)[C@H]1O)C3 [Dulcoside A],270.75
8,CC(C)c1cc(Oc2ccccc2)cc(C(C)C)c1NC(=S)NC(C)(C)C [Diafenthiuron],199.75
9,CCOP(=S)(OCC)Oc1cnc2ccccc2n1 [Quinalphos],165.1
10,CNC(=O)ON=CC(C)(C)S(C)=O (stereo not drawn) [Aldicarb sulfoxide],145.4
11,CN(C)[C@@H]1C(O)=C(C(N)=O)C(=O)[C@@]2(O)C(O)=C3C(=O)c4c(O)cccc4[C@@](C)(O)[C@H]3[C@H](O)[C@@H]12 [Oxytetracycline],202.3
12,CC(C)(C)NCC(O)c1cc(Cl)c(N)c(C(F)(F)F)c1 (stereo not drawn) [Mabuterol],168.4
13,CCC(C)(C)NCC(O)c1cc(Cl)c(N)c(Cl)c1 (stereo not drawn) [Clenpenterol],165
14,C[C@H](NCCc1ccc(O)cc1)[C@H](O)c1ccc(O)cc1 [Ritodrine],165.8
15,Cc1cc(C2CC2)nc(Nc2ccccc2)n1 [Cyprodinil],152.07
16,Cc1ncc([N+](=O)[O-])n1C [Dimetridazole],116.4
17,CC1(C(=O)Nc2ccc(O)c(Cl)c2Cl)CCCCC1 [Fenhexamid],164.82
18,COc1nc(C)nc(NC(=O)NS(=O)(=O)c2ccccc2Cl)n1 [Chlorsulfuron],175.29
19,CCOC(=O)OC1=C(c2cc(C)ccc2C)C(=O)NC12CCC(OC)CC2 (stereo not drawn) [Spirotetramat],189.99
20,Cc1ccsc1/C=C/C1=NCCCN1C [Morantel],149.7
21,CCC(C)(CC)c1cc(NC(=O)c2c(OC)cccc2OC)on1 [Isoxaben],184.93

row,SMILES,collision cross section (N2) [Å²]
1,CO/C=C(/C(=O)OC)c1ccccc1Oc1cc(Oc2ccccc2C#N)ncn1 [Azoxystrobin],195.75
2,Cc1noc(NS(=O)(=O)c2ccc(N)cc2)c1C [Sulfisoxazole],157.4
3,Nc1nc(N)nc(NC2CC2)n1 [Cyromazine],133.23
4,CC12C=CC3=C4CCC(=O)C=C4CCC3C1CCC2O (stereo not drawn) [17a-Trenbolone],163.3
5,OC(Cn1cncn1)(c1ccc(F)cc1)c1ccccc1F (stereo not drawn) [Flutriafol],163.97
6,CCCCOC(=O)[C@@H](C)Oc1ccc(Oc2ccc(C(F)(F)F)cn2)cc1 [Fluazafop-P-butyl],194.8
7,CCn1cc(C(=O)O)c(=O)c2ccc(C)nc21 [Nalidixic acid],141.4
8,COC(=O)N(C(=O)N1CO[C@@]2(C(=O)OC)Cc3cc(Cl)ccc3C2=N1)c1ccc(OC(F)(F)F)cc1 [Indoxacarb],207.03
9,Clc1ccccc1-c1nnc(-c2ccccc2Cl)nn1 [Clofentezine],161.9
10,O=C(NC(=O)c1c(F)cccc1F)Nc1cc(Cl)c(OC(F)(F)C(F)C(F)(F)F)cc1Cl (stereo not drawn) [Lufenuron],198.53
11,Cc1nn(-c2cc(NS(C)(=O)=O)c(Cl)cc2Cl)c(=O)n1C(F)F [Sulfentrazone],173.63
12,CSC1=N[C@@](C)(c2ccccc2)C(=O)N1Nc1ccccc1 [Fenamidone],171.15
13,O=C(NC(=O)c1c(F)cccc1F)Nc1cc(Cl)c(OC(F)(F)C(F)F)c(Cl)c1 [Hexaflumuron],188.22
14,Nc1ccc(S(=O)(=O)Nc2ccc(Cl)nn2)cc1 [Sulfachloropyridazine],156.9
15,CC1(C)CC/C(=C\c2ccc(Cl)cc2)C1(O)Cn1cncn1 (stereo not drawn) [Triticonazole],179.18
16,Cc1ccc(C(=O)c2ccc(CC(=O)O)n2C)cc1 [Tolmetin],156.7
17,Nc1ccc(S(=O)(=O)Nc2ncccn2)cc1 [Sulfadiazine],148.7
18,CC(Cc1ccc(C(C)(C)C)cc1)CN1CCCCC1 (stereo not drawn) [Fenpropidin],166.39
19,O=C(NC(=O)c1ccccc1Cl)Nc1ccc(OC(F)(F)F)cc1 [Triflumuron],169.88

# Settings: [M+H]+; instrument: DT; single field, calibrated with Agilent tune mix (Agilent)
row,collision cross section (N2) [Å²],SMILES
1,188.6,C[C@]12CCC(=O)C=C1CC[C@@H]1[C@@H]2C(=O)C[C@@]2(C)[C@H]1CC[C@]2(O)C(=O)CO [Cortisone]

# Same assay, conditions: [M-H2O-H]-; instrument: DT; single field, calibrated with Agilent tune mix (Agilent)
row,collision cross section (N2) [Å²],SMILES
1,180.07,C[C@]12CCC(=O)C=C1CC[C@@H]1[C@@H]2C(=O)C[C@@]2(C)[C@H]1CC[C@]2(O)C(=O)CO [Cortisone]

# Settings: [M+Na]+; instrument: DT; stepped-field
row,collision cross section (N2) [Å²],SMILES
1,164.17,c1ccc2[nH]c(-c3cscn3)nc2c1 [Thiabendazole]

# Settings: [M+NH4]+; instrument: DT; single field
row,collision cross section (N2),SMILES
1,261.08 Å²,CCCCC/C=C\C/C=C\C/C=C\CCCCCCCCC(=O)O[C@@H](CO)COC(=O)CCCCCCCCCCCCC [DG(36:3)]
2,321.77 Å²,CC/C=C\C/C=C\C/C=C\CCCCCCCC(=O)O[C@@H](COC(=O)CCC/C=C\C/C=C\C/C=C\C/C=C\CCCCC)COC(=O)CCCCCCC/C=C\C/C=C\CCCCC [TG(56:9)]
3,254.91 Å²,CCCC/C=C\CCCCCCCC(=O)OC[C@H](CO)OC(=O)CCCCC/C=C\C/C=C\C/C=C\C/C=C\CCCCC [DG(36:5)]
4,259.31 Å²,CCCCC/C=C\C/C=C\C/C=C\C/C=C\CCCC(=O)O[C@@H](CO)COC(=O)CCCC/C=C\C/C=C\C/C=C\CCCCC [DG(38:7)]
5,342.62 Å² and 345.63 Å² and 341.8 Å²,CCCC/C=C\CCCCCCCC(=O)OC[C@H](COC(=O)CCCCCCCCCCCCCCCCCCCCC)OC(=O)CCCCCCCCCCCCCCCCCCCCC [TG(58:1)]
6,249.72 Å²,CCCCC/C=C\C/C=C\CCCCCCCC(=O)O[C@@H](CO)COC(=O)CCCCCCCCCCCC [DG(31:2)]
7,257.21 Å²,CCCCC/C=C\C/C=C\C/C=C\CCCCC(=O)OC[C@H](CO)OC(=O)CCCCCCC/C=C\CCCCCCCC [DG(36:4)]

# Same assay, conditions: [M+Na]+; instrument: DT; single field
row,collision cross section (N2),SMILES
1,317.97 Å² and 320.06 Å²,CCCCCCCCC/C=C\CCCCCCCC(=O)OC[C@@H](COC(=O)CCCCCCCCCCCCCCC)OC(=O)CCCCCCCCCCCCCCC [TG(51:1)]
2,319.33 Å² and 321.38 Å²,CCCCC/C=C\CCCCCCCC(=O)OC[C@H](COC(=O)CCCCCCC/C=C\CCCCCCCCC)OC(=O)CCCCCCC/C=C\CCCCCCCCC [TG(53:3)]
